Experimental data published in US20210169871A1, “PHARMACEUTICAL COMPOSITIONS WITH REDUCED TERT-BUTANOL LEVELS” (TARVEDA THERAPEUTICS, INC., priority 2018, published 2021).
Marks after values point to notes of the source that are not given here.

Key:
[1] = Stability of SDC-TRAP-0063 sodium with added excipients
[2] = pH-dependent lactone / open ring carboxylic acid equilibrium in solution; type: physicochemical
Description: In solution, SDC-TRAP-0063 contains a lactone ring at pH-dependent equilibrium with the corresponding open chain carboxylic acid form. At high pH (above pH of around 9) the equilibrium shifts toward an open ring carboxylic acid form and at low pH it shifts toward the closed ring lactone form.
During the manufacturing process, SDC-TRAP-0063 is converted to SDC-TRAP-0063 Sodium, which is the dominant form at pH above approximately 9.3. SDC-TRAP-0063 Sodium drug product is aseptically manufactured as a sterile-filtered solution that is lyophilized. […] There is minimal impact from annealing or secondary drying modifications on TBA level in SDC-TRAP-0063 Sodium drug product.

[3] = Residual TBA in lyophilized drug product by gas chromatography (GC-HS); type: physicochemical; set-up: key to Residual TBA: TBA weight percentage in dry powder
Protocol: SDC-TRAP-0063 synthesized in Example 1 was dissolved in an alkaline co-solvent system comprising 30% (by volume) tert-butanol (TBA) and water to obtain a drug solution. Various polyols, such as PEG, glycerol and propylene glycol (PG), were added to the drug solution in vials prior to the standard lyophilization cycle (freezing→annealing→primary drying→secondary drying). Dry powder drug products comprising SDC-TRAP-0063 sodium were obtained. TBA weight percentages in the dry powders were measured by gas chromatography (GC-HS) (Table 1).

[4] = Residual moisture of lyophilized drug product; type: physicochemical; conditions: 100 mg/mL, 30% TBA, 4% PEG 400; Standard cycle (Table 2)
[5] = Residual TBA in lyophilized drug product by gas chromatography (GC-HS); type: physicochemical; set-up: key: TBA weight percentage in dry powder; conditions: 100 mg/mL
[6] = pH, testing of lyophilized drug product; type: physicochemical
[7] = 100 mg/mL, 15% TBA, 3% PEG 400, NaOH 5.5 g/100 g (Table 3)
[8] = 100 mg/mL, 15% TBA, 6% Mannitol (Table 4)
[9] = 100 mg/mL, 30% TBA, 1% glycerol, standard lyophilization cycle (Table 1)
[10] = 100 mg/mL, 30% TBA, 2% PG, standard lyophilization cycle (Table 1)
[11] = 100 mg/mL, 30% TBA, 2% glycerol, standard lyophilization cycle (Table 1)
[12] = 100 mg/mL, 30% TBA, 3% PEG 400, NaOH 5.5 g/100 g (Table 3)
[13] = 100 mg/mL, 30% TBA, 3% PEG 400, standard lyophilization cycle (Table 1)
[14] = 100 mg/mL, 30% TBA, 3% glycerol, Standard cycle (Table 2)
[15] = 100 mg/mL, 30% TBA, 3.5% PEG 400, Standard cycle (Table 2)
[16] = 100 mg/mL, 30% TBA, 3.5% glycerol, Standard cycle (Table 2)
[17] = 100 mg/mL, 30% TBA, 4% PEG 400, BnOH 0.1 mg/vial, NaOH 5.5 g/100 g (Table 3)
[18] = 100 mg/mL, 30% TBA, 4% PEG 400, NaOH 5 g/100 g (Table 3)
[19] = 100 mg/mL, 30% TBA, 4% PEG 400, NaOH 5.5 g/100 g (Table 3)
[20] = 100 mg/mL, 30% TBA, 4% PEG 400, Standard cycle (Table 2)
[21] = 100 mg/mL, 30% TBA, 4% PEG 400, standard lyophilization cycle (Table 1)
[22] = 100 mg/mL, 30% TBA, 4% PEG 1000 (Table 4)
[23] = 100 mg/mL, 30% TBA, 4% PEG 2000 (Table 4)
[24] = 100 mg/mL, 30% TBA, 4% PEG 4000 (Table 4)
[25] = 100 mg/mL, 30% TBA, 4% PG, standard lyophilization cycle (Table 1)
[26] = 100 mg/mL, 30% TBA, 4% glycerol, Standard cycle (Table 2)
[27] = 100 mg/mL, 30% TBA, 4% glycerol, standard lyophilization cycle (Table 1)

## CCc1c2c(nc3ccc(OC(=O)N4CCC(CCn5ccc6cc(-n7c(O)nnc7-c7cc(C(C)C)c(O)cc7O)ccc65)CC4)cc13)-c1cc([C@@](O)(CC)C(=O)[O-])c(CO)c(=O)n1C2.[Na+] [SDC-TRAP-0063 sodium, Sodium (S)-2-(2-((4-(2-(5-(3-(2,4-dihydroxy-5-isopropylphenyl)-5-hydroxy-4H-1,2,4-triazol-4-yl)-1H-indol-1-yl)ethyl)piperidine-1-carbonyl)oxy)-12-ethyl-8-(hydroxymethyl)-9-oxo-9,11-dihydroindolizino[1,2-b]quinolin-7-yl)-2-hydroxybutanoate]
[1]; PEG-400 added as excipient
  Stability with PEG-400 addition: no impact on the stability
[1]; propylene glycol added as excipient
  Stability with propylene glycol addition: faster decay
[2]; manufacturing process
  pH above which SDC-TRAP-0063 Sodium is the dominant form: approximately 9.3

## CCc1c2c(nc3ccc(OC(=O)N4CCC(CCn5ccc6cc(-n7c(O)nnc7-c7cc(C(C)C)c(O)cc7O)ccc65)CC4)cc13)-c1cc3c(c(=O)n1C2)COC(=O)[C@]3(O)CC [SDC-TRAP-0063, (S)-4,11-diethyl-4-hydroxy-3,14-dioxo-3,4,12,14-tetrahydro-1H-pyrano[3′,4′:6,7]indolizino[1,2-b]quinolin-9-yl 4-(2-(5-(3-(2,4-dihydroxy-5-isopropylphenyl)-5-hydroxy-4H-1,2,4-triazol-4-yl)-1H-indol-1-yl)ethyl)piperidine-1-carboxylate]
[1]; 4% of PEG-400
  Stability profile with 4% PEG-400: stability profile is acceptable
[1]; glycerol as excipient, compared with PEG-400
  Stability profile with glycerol as excipient: slightly worse stability profile
[2]
  pH above which equilibrium shifts toward open ring carboxylic acid form: around 9
[3]; [7]
  Residual TBA: 3.3%
[3]; [8]
  Residual TBA: 6.6%
[3]; 100 mg/mL, 30% TBA, 0% PEG 400, 0% glycerol, Standard cycle, average (Table 2)
  Residual TBA: 7% avg
[3]; 100 mg/mL, 30% TBA, 0% PEG 400, BnOH 0 mg/vial, NaOH 0 g/100 g, average (Table 3)
  Residual TBA: 7% avg
[3]; 100 mg/mL, 30% TBA, 0% PEG 1000, 0% PEG 2000, 0% PEG 4000, 0% Mannitol, average (Table 4)
  Residual TBA: 7% avg
[3]; [9]
  Residual TBA: 7.1%
[3]; [10]
  Residual TBA: 4.1%
[3]; [11]
  Residual TBA: 5.2%
[3]; [12]
  Residual TBA: 4.1%
[3]; [13]
  Residual TBA: 3.6%
[3]; [14]
  Residual TBA: 3.8%
[3]; [15]
  Residual TBA: 3.3%
[3]; [16]
  Residual TBA: 3.3%
[3]; 100 mg/mL, 30% TBA, 4% PEG 400, 5% Mannitol (Table 5)
  Residual TBA: 0.54
[3]; 100 mg/mL, 30% TBA, 4% PEG 400, 7.5% Mannitol (Table 5)
  Residual TBA: 1.36
[3]; 100 mg/mL, 30% TBA, 4% PEG 400, 10% Mannitol (Table 5)
  Residual TBA: 2.22
[3]; [17]
  Residual TBA: 2.4%
[3]; [18]
  Residual TBA: 1.9%
[3]; [19]
  Residual TBA: 2.2%
[3]; [20]
  Residual TBA: 2.7%
[3]; [21]
  Residual TBA: 2.0%
[3]; [22]
  Residual TBA: 2.3%
[3]; [23]
  Residual TBA: 2.2%
[3]; [24]
  Residual TBA: 2.3%
[3]; [25]
  Residual TBA: 1.5%
[3]; [26]
  Residual TBA: 1.8%
[3]; [27]
  Residual TBA: 1.2%
[3]; 100 mg/mL, 30% TBA, 5% PEG 400, 5% Mannitol (Table 5)
  Residual TBA: 0.11
[3]; 100 mg/mL, 30% TBA, 5% PEG 400, 7.5% Mannitol (Table 5)
  Residual TBA: 0.26
[3]; 100 mg/mL, 30% TBA, 5% PEG 400, 10% Mannitol (Table 5)
  Residual TBA: 0.74
[3]; 100 mg/mL, 30% TBA, 6% PEG 400, 5% Mannitol (Table 5), below the limit of quantitation of the method
  Residual TBA: 0.05*
[3]; 100 mg/mL, 30% TBA, 6% PEG 400, 7.5% Mannitol (Table 5), below the limit of quantitation of the method
  Residual TBA: 0.09*
[3]; 100 mg/mL, 30% TBA, 6% PEG 400, 10% Mannitol (Table 5)
  Residual TBA: 0.16
[3]; 4% of PEG-400
  Residual TBA with 4% PEG-400: 2.5-2.7%
[3]; pre-lyophilization solution 100 mg/mL, 30% TBA, 0% PEG 400, 0% glycerol, 0% PG, standard lyophilization cycle, average
  Residual TBA: 7% avg
[4]
  Residual Moisture: 0.26%
[5]; 15% TBA, 4% Mannitol (Table 4)
  Residual TBA: 6.0%
[5]; 30% TBA, 3% glycerol, No secondary drying (Table 2)
  Residual TBA: 4.0%
[5]; 30% TBA, 3.5% PEG 400, No secondary drying (Table 2)
  Residual TBA: 3.2%
[6]; [7]
  pH: 10.0
[6]; 100 mg/mL, 15% TBA, 4% Mannitol (Table 4)
  pH: 9.8
[6]; [8]
  pH: 9.8
[6]; 100 mg/mL, 30% TBA, 0% PEG 400, 0% glycerol, Standard cycle (Table 2)
  pH: 10.1-10.3
[6]; 100 mg/mL, 30% TBA, 0% PEG 400, BnOH 0 mg/vial, NaOH 0 g/100 g (Table 3)
  pH: 10.1-10.3
[6]; 100 mg/mL, 30% TBA, 0% PEG 1000, 0% PEG 2000, 0% PEG 4000, 0% Mannitol (Table 4)
  pH: 10.1-10.3
[6]; [9]
  pH: 10.2
[6]; [10]
  pH: 10.2
[6]; [11]
  pH: 10.2
[6]; [12]
  pH: 9.9
[6]; [13]
  pH: 10.1
[6]; 100 mg/mL, 30% TBA, 3% glycerol, No secondary drying (Table 2)
  pH: 10.1
[6]; [14]
  pH: 10.1
[6]; 100 mg/mL, 30% TBA, 3.5% PEG 400, No secondary drying (Table 2)
  pH: 10.1
[6]; [15]
  pH: 10.0
[6]; [16]
  pH: 10.1
[6]; [17]
  pH: 10.0
[6]; [18]
  pH: 9.5
[6]; [19]
  pH: 9.9
[6]; [20]
  pH: 10.1
[6]; [21]
  pH: 10.1
[6]; [22]
  pH: 9.7
[6]; [23]
  pH: 9.9
[6]; [24]
  pH: 9.8
[6]; [25]
  pH: 10.1
[6]; [26]
  pH: 10.1
[6]; [27]
  pH: 10.2
[6]; pre-lyophilization solution 100 mg/mL, 30% TBA, 0% PEG 400, 0% glycerol, 0% PG, standard lyophilization cycle
  pH: 10.1-10.3
Solubility in water
  Solubility in water: does not have good solubility in water
